Test results from patent US11008295B2, “Compounds having antiinfective, antitumoral and antifungal activity” (priority 2017, dated 2021).
Where two headings read alike, the source gives them in different places.

How the values were obtained:
[1] = system: N. carnea; test: Kirby-Bauer disk diffusion susceptibility test; type: cell-based, Nocardia carnea; details: N. carnea; zone of inhibition; 200 μg/disc
Experimental: (§1) Bacterial strains, from clinical origin, were supplied by the National Center for Microbiology, Institute of Health Carlos III (Majadahonda, Madrid). They are detailed in Table I.
(§2) Bacterial cells suspension in sterile saline was prepared from a culture of 24-72 h, depending on bacterial species, in Mueller-Hinton Agar with 5% sheep blood. Each suspension was adjusted to a fixed size inoculum of 1-5×10^8 CFU/ml with a spectrophotometer (Ferraro, M J National Committee for Clinical Laboratory Standards. 2000).
(§3) Kirby-Bauer disk diffusion susceptibility test protocol was utilized to determine the sensitivity or resistance of pathogenic bacteria against the compounds and others antibiotics. The absence of growth around the disks is an indirect measure of the ability of this compound to inhibit an organism (Kirby, W. et al., Antibiotics Annu. 1956-1957:892). After 18 to 72 hours of incubation at […], with or without CO2, under aerobic or anaerobic conditions, depending on the bacterial species, halo of growth inhibition were obtained and evaluated.
(§4) Interpretation of susceptibility and resistance was based on the presence or absence of a zone of inhibition surrounding the disk. Kirby-Bauer disk diffusion susceptibility test is a common method which uses antibiotic-impregnated wafers to test whether bacteria are affected by antibiotics. The size of the zone of inhibition depends on how effective the antibiotic is at stopping the growth of the bacterium. A stronger antibiotic will create a larger zone, because a lower concentration of the antibiotic is enough to stop growth.

[2] = system: T. pulmonis; test: Kirby-Bauer disk diffusion susceptibility test; type: cell-based, Tsukamurella pulmonis; details: T. pulmonis; zone of inhibition; 200 μg/disc
Experimental: as §1, §2, §3, §4

[3] = system: M. abscessus; test: Kirby-Bauer disk diffusion susceptibility test; type: cell-based, Mycobacterium abscessus; details: M. abscessus; zone of inhibition; 200 μg/disc
Experimental: as §1, §2, §3, §4

[4] = system: E. coli; test: Kirby-Bauer disk diffusion susceptibility test; type: cell-based; details: E. coli; zone of inhibition; 200 μg/disc
Experimental: as §1, §2, §3, §4

[5] = system: E. faecalis; test: Kirby-Bauer disk diffusion susceptibility test; type: cell-based; details: E. faecalis; zone of inhibition; 200 μg/disc
Experimental: as §1, §2, §3, §4

[6] = system: E. faecium; test: Kirby-Bauer disk diffusion susceptibility test; type: cell-based; details: E. faecium; zone of inhibition; 200 μg/disc
Experimental: as §1, §2, §3, §4

[7] = system: M. chelonae; test: Kirby-Bauer disk diffusion susceptibility test; type: cell-based; details: M. chelonae; zone of inhibition; 200 μg/disc
Experimental: as §1, §2, §3, §4

[8] = system: M. fortuitum; test: Kirby-Bauer disk diffusion susceptibility test; type: cell-based; details: M. fortuitum; zone of inhibition; 200 μg/disc
Experimental: as §1, §2, §3, §4

[9] = system: N. cyriacigeorgica; test: Kirby-Bauer disk diffusion susceptibility test; type: cell-based; details: N. cyriacigeorgica; zone of inhibition; 200 μg/disc
Experimental: as §1, §2, §3, §4

[10] = system: P. aeruginosa; test: Kirby-Bauer disk diffusion susceptibility test; type: cell-based; details: P. aeruginosa; zone of inhibition; 200 μg/disc
Experimental: as §1, §2, §3, §4

[11] = system: S. aureus; test: Kirby-Bauer disk diffusion susceptibility test; type: cell-based; details: S. aureus; zone of inhibition; 200 μg/disc
Experimental: as §1, §2, §3, §4

[12] = system: S. epidermidis; test: Kirby-Bauer disk diffusion susceptibility test; type: cell-based; details: S. epidermidis; zone of inhibition; 200 μg/disc
Experimental: as §1, §2, §3, §4

[13] = system: B. cereus; test: Kirby-Bauer disk diffusion susceptibility test; type: cell-based, Bacillus cereus; details: B. cereus; zone of inhibition; 200 μg/disc
Experimental: as §1, §2, §3, §4

[14] = system: C. parapsilopsis; test: Antifungal disk diffusion susceptibility test (CLSI M44); type: cell-based, C. parapsilosis
Experimental: (§5) Filamentous fungi and yeasts strains, from clinical origin, were supplied by Microbiology Service from The Princess Hospital, Madrid. They are detailed in Table III.
(§6) Filamentous fungi and yeast cells suspensions in distilled water was prepared from a culture of 24-48 h, depending on species, in Sabouraud agar. Each suspension was adjusted to a fixed size inoculum of 1-5×10^8 CFU/ml with a spectrophotometer (Ferraro, M J National Committee for Clinical Laboratory Standards. 2000).
(§7) Antifungal susceptibility tests were developed following the standardized methodology detailed in document CLSI: M44-4: Method for Antifungal Disk diffusion susceptibility testing of yeasts consisting of disk diffusion on agar Muller-Hinton (supplemented with 2% glucose).

[15] = system: A. flavus; test: as above; type: cell-based
Experimental: as §5, §6, §7

[16] = system: A. fumigatus; test: as above; type: cell-based
Experimental: as §5, §6, §7

[17] = system: A. niger; test: as above; type: cell-based
Experimental: as §5, §6, §7

[18] = system: A. terreus; test: as above; type: cell-based
Experimental: as §5, §6, §7

[19] = system: C. albicans; test: as above; type: cell-based
Experimental: as §5, §6, §7

[20] = system: C. glabrata; test: as above; type: cell-based
Experimental: as §5, §6, §7

[21] = system: C. guilliermondii; test: as above; type: cell-based
Experimental: as §5, §6, §7

[22] = system: C. lusitaniae; test: as above; type: cell-based
Experimental: as §5, §6, §7

[23] = system: C. tropicalis; test: as above; type: cell-based
Experimental: as §5, §6, §7

[24] = system: HIV; test: microbe, parasite or virus in culture; type: cell-based; details: for safety index: anti-HIV activity/toxicity profile, MT-2 cells
Text: Assessment of in vitro antiviral activity is usually performed to estimate parameters of antiviral potency and efficacy represented by the percentage of inhibition of HIV activity or IC50. The assay utilized is based on the use of recombinant viruses in which the nef gene, […] for in vitro HIV replication, has been replaced by a Renilla reporter gene so that viral replication can be quantified directly (Garcia-Perez J et al, J Med Virol. 2007 February; 79(2):127-37). The assay was performed infecting MT-2 cells or PHA-activated PBMCs/IL-2 with viral supernatants obtained previously. The study was development in AIDS Immunopathology Unit, National Center of Microbiology, Institute of Health Carlos III, Majadahonda, Madrid, Spain.
All data are expressed as percentage relative to a control with DMSO at the same concentration. Antiviral activity and toxicity curves were performed to the compound at different concentrations.

[25] = Cellular viability (CellTiter Glo) in parallel to the anti-HIV assay; type: cell-based; details: human; concentration required to kill 50% of cells; MT-2 cells; read-out: CC50 VIH MT-2
Experimental: All assays for assessing anti-HIV activity were taken in parallel to determine cellular viability of the culture in the presence or absence of different concentrations of the isolated molecule. It was followed exactly the same methodology as in the anti-HIV assay except with the addition of complete DMEM medium instead of supernatant viral, in the same proportion, and the detection of the viability was performed with the viability detection kit CellTiter Glo (Promega), following manufacturer instructions. Viability is directly proportional to the luciferase activity obtained. All data are expressed as percentage relative to a control with DMSO at the same concentration. Antiviral activity and toxicity curves were performed to the compound at different concentrations.

[26] = system: CAL33 cell line (head and neck); test: MTT assay, antitumor activity; type: cell-based
[27] = system: HT29 cell line (colon); test: MTT assay, antitumor activity; type: cell-based
[28] = system: A. baumannii; test: Kirby-Bauer disk diffusion susceptibility test; type: cell-based; details: A. baumannii; zone of inhibition; 200 μg/disc
Experimental: as §1, §2, §3, §4

[29] = system: MCF7 cell line (breast); test: MTT assay, antitumor activity; type: cell-based
[30] = Human immunodeficiency virus 1, MT2
[31] = Human immunodeficiency virus 1, MT2, read-out: IC50 VIH MT-2

Structure (SMILES) | Activity (mm), 200 μg/disc [1] [mm] | Activity (mm), 200 μg/disc [2] [mm] | Activity (mm), 200 μg/disc [3] [mm] | Activity (mm), 200 μg/disc [4] [mm] | Activity (mm), 200 μg/disc [7] [mm] | Activity (mm), 200 μg/disc [8] [mm] | Activity (mm), 200 μg/disc [9] [mm] | Activity (mm), 200 μg/disc [10] [mm] | Activity (mm), 200 μg/disc [11] [mm] | Activity (mm), 200 μg/disc [12] [mm] | Activity (mm), 200 μg/disc [13] [mm] | Activity (mm), 200 μg/disc [14] [mm] | Activity (mm), 200 μg/disc [15] [mm] | Activity (mm), 200 μg/disc [16] [mm] | Activity (mm), 200 μg/disc [17] [mm] | Activity (mm), 200 μg/disc [18] [mm] | Activity (mm), 200 μg/disc [19] [mm] | Activity (mm), 200 μg/disc [20] [mm] | Activity (mm), 200 μg/disc [21] [mm] | Activity (mm), 200 μg/disc [22] [mm] | also measured
CCCCCC1=NN(C(=O)CCOC(=O)CCC(=O)O)OC(CCCCC)C1 (centres unmarked) [DOXA-1] | 40 | 34 | 32 | 9 | 34 | 30 | 35 | 9 | 20 | 22 | 36 | 30 | 20 | 15 | 18 | 18 | 25 | 30 | 38 | 38 | Activity (mm), 200 μg/disc [5]: 34 mm; Activity (mm), 200 μg/disc [6]: 34 mm; Activity (mm), 200 μg/disc [23]: 30 mm; IC50 [24, 30]: 130 nM; IC50 [24, 31]: 130 nM; safety index [24]: more than 60; CC50 [25]: 8200 nM; Inhibition of cell line ([26]; 750 nM): moderate inhibition; Inhibition of cell line ([27]; 750 nM): moderate inhibition
CCCCCC1=NN(C(=O)CCOC(C)=O)OC(CCCCC)C1 (centres unmarked) [DOXA-2] | 25 | 41 | 25 | 9 | 30 | 25 | 26 | 9 | 10 | 10 | 20 | 18 | 38 | 30 | 40 | 40 | 18 | 18 | 28 | 20 | Activity (mm), 200 μg/disc [28]: 9 mm; Activity (mm), 200 μg/disc [23]: 20 mm; IC50 [24, 30]: 84 nM; IC50 [24, 31]: 84 nM; safety index [24]: about 100; CC50 [25]: 7720 nM; Concentration of optimal inhibition [26]: 100 nM; Concentration at which proliferation was inhibited ([26]; 10-750 nM, 24, 48 and 72 hours): 50 nM; Concentration of best inhibition [27]: 50 nM; Concentration at which proliferation was inhibited [29]: 250 nM
